Assay results as given in patent publication US20240400529A1, “COMPOSITIONS AND METHODS FOR THE PREVENTION AND/OR TREATMENT OF MITOCHONDRIAL DISEASE, INCLUDING FRIEDREICH'S ATAXIA” (Stealth BioTherapeutics Inc., priority 2019, published 2024).
“Also recorded” adds a separate entry of the source.

Tests used:
[1] = system: frataxin deficient fibroblasts (Friedreich's ataxia patient, GM03665); assay type: cell-based
[2] = system: HepG2 human hepatocarcinoma cells; test: Rotenone ATP Assay (Complex I by-pass); assay type: cell-based; conditions: for Complex I by-pass activity / restoring ATP production, in words: summary statements also cover the Oxygraph assay
Experimental: This assay has been adapted from Haefeli R H, Erb M, Gemperli A C, Robay D, Courdier Fruh I, et al. (2011) NQO1-Dependent Redox Cycling of Idebenone: Effects on Cellular Redox Potential and Energy Levels. PLOS ONE 6 (3): e17963. HepG2 human hepatocarcinoma cells were co-incubated with the electron transport chain Complex I toxin rotenone+/−compounds of interest and the corresponding effect on ATP synthesis was measured with a bioluminescent substrate.
In brief, HepG2 cells were plated at 25,000 cells per well in low glucose (1 gram/Liter) DMEM medium+10% fetal calf serum and incubated for 24 hours. The following day, the media was decanted and subsequently replaced with glucose free/serum free DMEM which has been supplemented with 50 micromolar rotenone and compound of interest. Serial dilutions of compound were prepared in 3× dilutions beginning at 25 micromolar. The cells were incubated for 60 minutes in a humidified tissue culture incubator. Following incubation, ATP levels were quantified via bioluminescent assay (Promega […] Glo Assay kit) and readings were captured on a standard microplate reader.
ATP bioluminescence is plotted versus the log of compound of interest and data were used to generate EC50 values. Curve fitting was performed using a sigmoidal dose response curve fit function (GraphPad Prism software).
Robustness of curve fit was assessed as a quality control measure, with an R squared value of at least 0.80 being required for a successful curve fit. Compounds of interest showing an increase in ATP bioluminescence relative to vehicle control were verified in an independent biological replicate of n=3 technical replicates per dose.
This assay is a direct measure of the ability of compounds of interest to restore ATP production under conditions of inhibition of Complex I of the mitochondrial electron transport chain. As the majority of ATP produced via the electron transport chain is thought to derive from Complex I activity, significant impairment in Complex I function has dire biological consequences. Of note, Complex I mutations are thought to drive pathophysiology in multiple mitochondrial diseases, including Leigh syndrome and Leber's Hereditary Optic Neuropathy (LHON), while diminished Complex I activity and the resultant attenuation of ATP production has been shown in neurodegenerative diseases, including Friedreich's Ataxia, Parkinson's Disease and Huntington's Disease.

[3] = system: GM03665 cells (fibroblasts from a subject with Friedreich's ataxia); test: RSL3 Toxicity Assay (RSL3 Assay); assay type: cell-based, human
Experimental: In brief, GM03665 cells (Coriell Institute) were seeded in 96-well plates (Sarstedt) in DMEM cell culture media containing 10% Fetal Bovine serum and 1% Penicillin-Streptomycin (Pen-Strep) antibiotic mix at the amount of 2×10^4/mL (100 μL or 2×10^3 cells per well). Cells were left to rest overnight at 37° C. in a humidified atmosphere with 5% CO2 to allow attachment of the cells to the culture plate. Test compounds were prepared as DMSO stocks (10 mM) and were serially diluted in cell culture media to obtain 2× working solutions. Cell media was discarded and replaced by 50 μL of test compound solutions or cell media with vehicle for control wells. Within 15 minutes, 2× working solution (4 μM) of 1S,3R-RSL3 (CAS #1219810-16-8, Sigma-Aldrich) (diluted from 5 mM DMSO stock in cell culture media) was added. Final reaction volume was 100 μL and final DMSO concentration in reaction was kept below 0.2% (v/v) and equal in all wells. Final RSL3 concentration was 2 μM and test compound final concentrations in reaction were up to 1000 nM. After 24 hours of incubation cell viability was assessed by MTT test. MTT (Sigma-Aldrich) solution 1 mg/mL in 1×PBS (pH=7,4) was prepared 1 hour before the assay and filtered through Filtropur S 0.2 filters (Sarstedt). Cell media with test compounds was discarded and 100 μL of MTT solution was added to cells. The plates were incubated for 2 hours at +37° C. Thereafter, the MTT solution was removed and 100 μL of isopropanol was added to dissolve sediment. Absorption at 570 and 650 nm was measured using Hidex Sense microplate reader.

[4] = system: intact HepG2 cells; test: Rotenone Oxygraph Assay (high-resolution respirometry); assay type: cell-based, human
Experimental: The Oxygraph-2k (O2k, OROBOROS INSTRUMENTS, Austria) was used for measurements of respiration of intact cells. The respirometry was performed in Dulbecco's Modified Eagle Medium (DMEM) high glucose without supplements. All experiments were performed at 37° C.
HepG2 cells (ATCC collection code HB-8065™) were cultured in 10 cm^2 culture dishes in DMEM high glucose medium supplemented with 10% fetal bovine serum (FBS) and 100 units/mL penicillin and 100 μg/mL streptomycin until approximately 90% confluence was reached. Immediately prior to performing the respirometric assay, the cells were washed with media without FBS, trypsinized and resuspended in DMEM high glucose without FBS.
The final concentration of intact cells in the O2k-chamber was 0.5.10^6/mL. After stabilization of respiration, the Complex I inhibitor, rotenone, at 1 μM final concentration was added to inhibit electron flux via Complex I. Then, compound to be tested was added at 10 μM final concentration, and the change in respiration rate of intact cells was monitored.

[5] = system: Nrf-2 responsive genes; test: Nrf-2 Activation Assay (Nrf-2 Assay); assay type: cell-based, human; conditions: FIG. 7; 1 μM, 24 hours
Experimental: This assay was developed internally and was designed to determine if the novel test compounds disclosed herein active Nrf-2 and thereby promote resolution of inflammation by the mechanism believed to be responsible for the activity of omaveloxolone.
Briefly, GM03665 Eriedreich Ataxia patient fibroblasts were grown in 12 Well Plates (TC Cell+F) (Sarstedt, Nümbrecht Germany), at a density of 12×10^4 cells/per well in DMEM/F12 (Gibco, ThermoFisher Scientific, Waltham, MA, USA) cell media supplemented with 10% FBS and 1% Pen/Strep. Cells were left to rest overnight at 37° C. in a humidified atmosphere with 5% CO2 to allow attachment of the cells to the culture plate. Before continuing assay visual inspection of each well was done by light microscopy to detect any possible bacterial and fungal contamination. […] After incubation, cell media was removed and total RNA from the cells was isolated using E.Z.N.A.® Total RNA Kit I (Omega Bio-tek, Norcross, Georgia, USA) spin columns, and first-strand cDNA synthesis was carried out using a High Capacity cDNA Reverse Transcription Kit (Applied Biosystems™, Foster City, CA) following the manufacturer's instructions. qPCR analysis of gene expression was performed by mixing SYBR® Green Master Mix (Applied Biosystems™) with synthesized cDNA and forward and reverse primers. […] (60 cycles), and 95° C. for 60 seconds, followed by melt curve analysis at 72-95° C., 0.3° C./sec. The relative expression levels for each gene were calculated with the ΔΔCt method and normalized to the expression of REEP5 and SNRPD3 genes.

[6] = target: lipoxygenase-15 enzyme (Glycine max (Soybean) (Glycine hispida), UniProt P08170); test: Lipoxygenase-15 Assay (LO-15 Assay); assay type: biochemical; conditions: reduced forms tested

lipoxygenase-15 inhibition, in words [6] | Structure (SMILES) | protection from BSO induced cell death / ferroptosis, in words [1] | Complex I by-pass activity / restoring ATP production, in words [2] | activity in the RSL3 Assay, in words [3] | Rotenone Oxygraph Assay % Increase (Table 7) ([4]; 1 μM rotenone, 10 μM compound) | activation of Nrf-2 responsive genes / pathway, in words [5] | activity in the Rotenone Oxygraph Assay, in words [4] | Percent increase in ATP (Table 4, Rotenone Oxygraph Assay) ([4]; 1 μM rotenone, 10 μM compound, change in respiration rate of intact cells) | Rotenone ATP Assay EC50, nM (Table 7) ([2]; HepG2, 50 micromolar rotenone, 60 minutes) | RSL3 Assay EC50, nM (Table 7) ([3]; 2 μM RSL3, 24 hours, MTT) | Mean EC50, RSL3 Assay (Table 3) ([3]; 2 μM RSL3, 24 hours, MTT, mean of at least three measurements, unit from Table 7)
 | CC(C)=CCC/C(C)=C/CC/C(C)=C/CC[C@@](C)(O)CCC1=C(C)C(=O)C(C)=C(C)C1=O (stereo in doubt) [Vatiquinone, reference compound] | ability to circumvent BSO induced cell death | not | active |  |  |  |  |  |  | 
 | Cc1c(C)c2c(c(C)c1O)CC[C@@](C)(CCC=C(F)F)O2 [Compound 67, (R)-2-(4,4-difluorobut-3-en-1-yl)-2,5,7,8-tetramethylchroman-6-ol] | possess both activities | possess both activities |  |  |  |  |  |  |  | 
outside of the range of the assay | CC1=C(C)C(=O)C(CC[C@](C)(O)CC/C=C(\C)CC/C=C(\C)CCC=C2COC2)=C(C)C1=O [Compound E, 2-((R,6E,10E)-3-hydroxy-3,7,11-trimethyl-14-(oxetan-3-ylidene)tetradeca-6,10-dien-1-yl)-3,5,6-trimethylcyclohexa-2,5-diene-1,4-dione] | possess both activities; also recorded: able to prevent ferroptotic cell death; also recorded: active | possess both activities | active; also recorded: able to prevent ferroptotic cell death | 37.9 +/− 10.7% | do not activate |  |  |  |  | 
effective inhibitors | CC1=C(C)C(=O)C(CC[C@](C)(O)CC/C=C(\C)CCC=C(F)F)=C(C)C1=O [Compound H, (R,E)-2-(11,11-difluoro-3-hydroxy-3,7-dimethylundeca-6,10-dien-1-yl)-3,5,6-trimethylcyclohexa-2,5-diene-1,4-dione] | able to prevent ferroptotic cell death; also recorded: active |  | active; also recorded: able to prevent ferroptotic cell death | 54.3 +/− 13% | do not activate |  |  |  |  | 
effective inhibitors | CC1=C(C)C(=O)C(CC[C@@](C)(O)CC/C=C(\C)CCC=C(F)F)=C(C)C1=O [Compound L, (S,E)-2-(11,11-difluoro-3-hydroxy-3,7-dimethylundeca-6,10-dien-1-yl)-3,5,6-trimethylcyclohexa-2,5-diene-1,4-dione] | possess both activities; also recorded: able to prevent ferroptotic cell death; also recorded: active | possess both activities | active; also recorded: able to prevent ferroptotic cell death | 58.6 +/− 15.5% | do not activate |  |  |  |  | 
 | COC1=C(OC)C(=O)C(CCCCCCCCCCO)=C(C)C1=O [Idebenone, reference compound] | very weakly active/borderline inactive | ability to restore ATP production when Complex I is inhibited |  | 70.2 +/− 15% |  |  |  |  |  | 
 | CC1(C)CC[C@]2(NC(=O)C(C)(F)F)CC[C@]3(C)[C@H](C(=O)C=C4[C@@]5(C)C=C(C#N)C(=O)C(C)(C)[C@@H]5CC[C@]43C)[C@@H]2C1 [Omaveloxolone, reference compound] | ability to circumvent BSO induced cell death; also recorded: displayed anti-ferroptotic activity | not | completely inactive | Inactive | positive and does | inactive | Inactive | Inactive | Inactive | Inactive
